Results on 4 compounds are retold here after ChEMBL document CHEMBL5325418, “Studies on diketopiperazine and dipeptide analogs as opioid receptor ligands” (Eur J Med Chem, 2023).

Active and inactive are the calls of the source. The rule behind the calls is not given here. Bounds are passed on as bounds.

The target of data set [1] is Kappa-type opioid receptor (Homo sapiens, UniProt P41145). Put plainly: Displacement of [3H]U69593 from human KOR expressed in HEK cell membranes assessed as inhibition constant incubated for 60 mins by microbeta 2 scintillation counting method. On the set-up: species or system Cell membrane.
Sequence of Kappa-type opioid receptor (P41145 whole entry): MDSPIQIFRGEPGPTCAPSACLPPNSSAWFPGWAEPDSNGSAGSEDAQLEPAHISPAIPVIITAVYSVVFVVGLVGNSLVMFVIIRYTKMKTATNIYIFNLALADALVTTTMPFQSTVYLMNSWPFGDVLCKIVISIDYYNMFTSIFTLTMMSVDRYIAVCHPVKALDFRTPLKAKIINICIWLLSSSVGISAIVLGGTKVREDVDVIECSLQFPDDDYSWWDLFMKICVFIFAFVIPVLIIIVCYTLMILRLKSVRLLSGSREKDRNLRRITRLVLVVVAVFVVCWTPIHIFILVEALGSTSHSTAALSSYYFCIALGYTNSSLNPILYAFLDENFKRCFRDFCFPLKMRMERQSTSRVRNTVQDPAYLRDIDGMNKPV
The next data set deals with Mu-type opioid receptor (Homo sapiens, UniProt P35372). Put plainly: Displacement of [3H]DAMGO from human MOR expressed in CHO cell membranes assessed as inhibition constant incubated for 60 mins by microbeta 2 scintillation counting method. Set-up: species or system Cell membrane.
Sequence of Mu-type opioid receptor (P35372 whole entry): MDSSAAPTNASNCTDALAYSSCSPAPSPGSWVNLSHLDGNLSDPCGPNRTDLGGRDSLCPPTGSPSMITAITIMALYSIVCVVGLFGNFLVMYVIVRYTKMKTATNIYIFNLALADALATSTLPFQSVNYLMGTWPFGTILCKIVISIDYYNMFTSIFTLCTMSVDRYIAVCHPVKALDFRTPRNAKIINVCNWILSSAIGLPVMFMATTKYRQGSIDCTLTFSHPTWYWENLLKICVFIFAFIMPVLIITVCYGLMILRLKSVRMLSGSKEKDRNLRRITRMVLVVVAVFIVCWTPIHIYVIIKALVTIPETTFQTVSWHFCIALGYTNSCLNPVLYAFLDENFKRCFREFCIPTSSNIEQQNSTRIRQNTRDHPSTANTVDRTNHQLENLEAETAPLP
Data set [2] deals with Delta-type opioid receptor (Homo sapiens, UniProt P41143). Put plainly: Displacement of [3H]DADLE from human DOR expressed in CHO cell membranes assessed as inhibition constant incubated for 60 mins by microbeta 2 scintillation counting method. Set-up: species or system Cell membrane.
Sequence of Delta-type opioid receptor (P41143 whole entry): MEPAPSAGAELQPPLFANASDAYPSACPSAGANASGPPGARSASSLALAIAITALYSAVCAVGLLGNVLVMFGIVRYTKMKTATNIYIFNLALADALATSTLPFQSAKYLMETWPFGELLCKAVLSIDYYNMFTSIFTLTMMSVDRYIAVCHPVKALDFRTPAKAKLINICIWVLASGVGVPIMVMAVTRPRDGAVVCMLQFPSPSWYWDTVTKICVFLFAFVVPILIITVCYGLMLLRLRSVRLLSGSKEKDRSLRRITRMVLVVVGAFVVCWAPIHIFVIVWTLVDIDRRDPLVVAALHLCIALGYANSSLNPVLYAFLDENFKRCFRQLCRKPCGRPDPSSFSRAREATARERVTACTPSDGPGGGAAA
The species entered for data set [3] is Homo sapiens. Put plainly: Selectivity ratio of Ki for displacement of [3H]DAMGO from human MOR expressed in CHO cell membranes to Ki for displacement of [3H]U69593 from human KOR expressed in HEK cell membranes. In general terms: In a radioligand displacement assay an active substance lowers the binding of a labelled ligand.
Data set [4] is filed under the species Homo sapiens. Nature of the data set: Selectivity ratio of Ki for displacement of [3H]DADLE from human DOR expressed in CHO cell membranes to Ki for displacement of [3H]U69593 from human KOR expressed in HEK cell membranes.
Data set [5] is described as follows: Metabolic stability in human plasma assessed as half life at 100 uM measured upto 24 hrs by LC-MS/MS analysis. The format is ADME, cell-free.
The nature of data set [6]: Metabolic stability in Beagle dog plasma assessed as half life at 100 uM measured upto 24 hrs by LC-MS/MS analysis. The data set is classed as ADME, cell-free, Canis lupus familiaris. The following applies: Beagle.
The nature of data set [7]: Metabolic stability in Sprague-Dawley rat plasma assessed as half life at 100 uM measured upto 24 hrs by LC-MS/MS analysis. The format is ADME, cell-free.
Data set [8] is described as follows: Metabolic stability in CD-1 mouse plasma assessed as half life at 100 uM measured upto 24 hrs by LC-MS/MS analysis. The format is ADME, cell-free.
Data set [9] can be described thus: Metabolic stability in Sprague-Dawley rat liver microsomes assessed as intrinsic clearance at 100 uM measured upto 24 hrs in presence of NADPH by LC-MS/MS analysis. The format is ADME, Microsome. On the technique in general: Liver microsomes are vesicles of endoplasmic reticulum, rich in cytochrome P450 enzymes.
Data set [10] can be described thus: Plasma protein binding in human assessed as bound fraction at 1 uM by LC-MS/MS analysis. The data set is classed as ADME, cell-free.
Data set [11] can be described thus: Plasma protein binding in dog assessed as bound fraction at 1 uM by LC-MS/MS analysis. The data set is classed as ADME, cell-free, Canis lupus familiaris.
The nature of data set [12]: Plasma protein binding in rat assessed as bound fraction at 1 uM by LC-MS/MS analysis. The format is ADME, cell-free.
Data set [13] can be described thus: Plasma protein binding in mouse assessed as bound fraction at 1 uM by LC-MS/MS analysis. The data set is classed as ADME, cell-free.
The test system of a further data set is BEND3. Put plainly: Apparent permeability coefficient of the compound across blood brain barrier in mouse BEND3 cells at 10 ug/ml measured upto 120 mins by LC-MS/MS analysis. The following applies: dose 10.0 µg/ml. The format is functional, cell-based.
Data set [14] is described as follows: In vivo inhibition of U50488-induced activation of KOR in C57BL/6 mouse assessed as reduction of occupancy on cold plate at 1 mg/kg, ip pre-treated with U50488 followed compound addition measured after 1 hr by TPPT assay (reference value: 67.28 +/- 10.8% ). The data set is classed as functional.
Data set [15] deals with Rattus norvegicus. Put plainly: Antiallodynic activity against spinal nerve ligation neuropathic pain rat model assessed as reduction in mechanical hypersensitivity at 3 mg/kg, ip measured at 1 hr by von frey test. The data set is classed as functional, organism-based.
Data set [16] has as its system Rattus norvegicus. Nature of the data set: Effect on emotional-affective response in spinal nerve ligation neuropathic pain rat model assessed as reduction in audible vocalizations at 3 mg/kg, ip measured at 1 hr by preamplifier based analysis. The data set is classed as functional, organism-based.
The test system of data set [17] is Rattus norvegicus. Nature of the data set: Effect on emotional-affective response in spinal nerve ligation neuropathic pain rat model assessed as reduction in ultrasonic vocalizations at 3 mg/kg, ip measured at 1 hr by preamplifier based analysis. The data set is classed as functional, organism-based.

As for `COc1cc(CC2NC(=O)CN(Cc3ccccc3)C2=O)c(I)c(OC)c1` (stereo unspecified), the Ki is 0.51 µM in data set [1], over 10 µM on Mu-type opioid receptor and over 10 µM in data set [2]. Further, the Ratio Ki in the data set listed under Homo sapiens [3] and in the data set listed under Homo sapiens [4] was over 20 in each case. Besides, the half-life at 100 µM in data set [5], in data set [6], in data set [7] and in data set [8] was over 24 h throughout. The Intrinsic clearance in data set [9] is 390.5 µL/min/mg. Also, the PPB in [10] is recorded as 95.95%; in [11], 89.68%; in data set [12] it was 93.99%; in [13] it was 91.69%. Besides, the Pe in the data set with BEND3 is 9.68 10^-3cm/min.
For `COc1cccc(CC2NC(=O)CN(Cc3ccccc3)C2=O)c1I` (stereo unspecified), the values for the Ki (in [1]; at Mu-type opioid receptor; in [2]) were 0.924 µM, over 10 µM and over 10 µM, respectively. The Ratio Ki in the data set listed under Homo sapiens [3] and in the data set listed under Homo sapiens [4] was over 11 each time. The half-life at 100 µM in data set [5], in data set [6], in data set [7] and in data set [8] was over 24 h each time. The Intrinsic clearance in data set [9] worked out at 381.8 µL/min/mg. In addition, the PPB in data set [10] was determined as 91.42%; in [11], 86.15%; in data set [12], 91.24%; in [13], 85.15%. For the same compound, the Pe with BEND3 was 5.07 10^-3cm/min. For the same compound, the inhibition in vivo at 1 mg/kg in data set [14] was 10.3%. For the same compound, the outcome in the data set with Rattus norvegicus [15], with Rattus norvegicus [16] and with Rattus norvegicus [17] was Active.
`NCC1(CC(=O)O)CCCCC1`: the outcome with Rattus norvegicus [16] and with Rattus norvegicus [17] was Active.
`COc1cccc(CC2NC(=O)CN(Cc3ccccc3)C2=O)c1C` (stereo unspecified): the Ki was 0.6 µM in [1], over 10 µM on Mu-type opioid receptor and over 10 µM in [2]. Besides, the Ratio Ki in the data set listed under Homo sapiens [3] and in the data set listed under Homo sapiens [4] was over 17 in each case. For the same compound, the half-life at 100 µM in [5], in data set [6], in data set [7] and in [8] was over 24 h in each case. The Intrinsic clearance in data set [9] was found to be 337.2 µL/min/mg. Also, the PPB in [10] is listed as 80.46%; in data set [11] it was 86.67%; in data set [12], 76.34%; in [13] it was 86.29%. Moreover, the Pe in the data set on BEND3 was 5.99 10^-3cm/min.

Broadly, the Ki is a dissociation constant, usually derived from enzyme kinetics or from competition with a known ligand. One may read the half-life as how long it takes for the measured level to halve. One may read the inhibition in vivo as the relative decrease from the control value, in per cent.
